Values of other authors in US20190083428A1, “SALT BALANCED VAGINAL PRODUCT AND METHOD” (Good Clean Love, Inc., priority 2014, published 2019).

Legend:
[1] = hyperosmolal concentrations
HSV-2 = details: after a single exposure

| Compound | toxicity [1] | susceptibility to HSV-2 (HSV-2) | toxicity to lactobacilli (lactobacilli) |
| --- | --- | --- | --- |
| OCC(O)CO [glycerol] | obvious toxicity |  |  |
| CC(O)CO (stereo not shown) [propylene glycol] | obvious toxicity | markedly increased susceptibility |  |
| nonoxynol-9 [Example N9] |  |  | toxic |
